Patent publication US20040229960A1, “Compositions and methods of administering tubulin binding agents for the treatment of ocular diseases” (priority 2001, published 2004)

Tests used:
pathological myopia = assay: Human patient with pathological myopia, phase I/II study; type: in vivo
Source text: A person was originally examined on Day One after complaining of visual obstructions in their left eye. The patient had received ocular lens implants in both eyes approximately 2 years earlier to correct for myopia. The patient was diagnosed with pathological myopia (also known as proliferative myopathy and myopic macular degeneration) and received a total of four treatments of Photodynamic Therapy (PDT, Visudyne™) in the left eye over the course of the next 8 months. […] In June 2003, the patient was diagnosed with pathological myopia in the right eye as well.
About 3 months later, the patient was enrolled in an open-label, pilot (phase I/II), dose-escalation safety and tolerability study of CA4P. At that time, the patient's best corrected visual acuity was 20/50-3 in the left eye and 20/25-3 in the right eye, as determined by a Snellen back-lit visual acuity test. […] On Day One of the study, the patient began treatment with an intravenous infusion of CA4P (free acid), at a dose of 27 mg/m2, over a 10 minute period. […] The patient received second, third, and fourth infusions of CA4P on Days 8, 15, and 22 of the study, with a maintenance of visual acuity and no active leakage in either eye.

[1] = Intraocular irritation following intravitreal injection; type: in vivo, rabbits; conditions: for Mean cell counts in the vitreous fluid (white blood cells): 0.2 ml intravitreal, about 48 h, <=200 acceptable
Experimental: The test article, CA4P, was evaluated for the potential to cause intraocular irritation following intravitreal injection in rabbits. Following general anesthesia, a 0.2 ml dose of CA4P was administered to the right eyes of eight rabbits. A 0.2 ml dose of 0.9% sodium chloride USP solution was administered to the left eyes of the rabbits to serve as a negative control. Four different concentrations of CA4P were tested. Each of the four concentrations (0.1 mg/ml, 1.0 mg/ml, 10 mg/ml and 100 mg/ml) were dosed to the right eyes of two rabbits. Approximately 48 hours after the treatment, the eyes were examined with a biomicroscopic slit-lamp and an indirect ophthalmoscope. The scores were recorded and the rabbits were euthanized. Immediately after euthanasia, samples of vitreous fluid were drawn and white blood cell counts were determined with a hemacytometer. Counts less than or equal to 200 cells/mm^3 were considered to be acceptable.

[2] = Primary ocular irritation, sub-Tenon's injection; type: in vivo, rabbits; conditions: for Ocular irritation vs negative control eyes: two 0.1 ml sub-Tenon's injections, 24-72 h
Experimental: The test article, CA4P, was evaluated for primary ocular irritation. Two 0.1 ml injections of the appropriate CA4P concentration (0.1, 1.0, 10 and 100 mg/ml) were injected into the sub-Tenon's space of the right eye of two rabbits. A 0.2 ml portion of buffered saline solution was injected into the sub-Tenon's space of the left eyes to serve as a negative control. Ocular reactions were evaluated at 24, 48 and 72 hours after the sample instillation. On day 3, rabbits were euthanized and eyes were removed. The specimens were fixed and embedded, and histology was performed. Histopathologic changes in the eye tissues were recorded with an emphasis placed on examination of changes in the sub-Tenon's space.

[3] = Biodistribution of 14C-CA4P following subconjunctival injection; type: in vivo, New Zealand rabbits
Experimental: ^14C-CA4P (OXiGENE Inc., Watertown, Mass.) was resuspended in 100 ul volume of saline solution and injected with a 30 G needle into the right eyes of anesthesized male New Zealand rabbits (4 months old, 1.8-2.5 kg, n=3 per sample). Three different concentrations of ^14C-CA4P were tested (1, 10, 100 mg/ml) corresponding to doses of 1, 5, and 5 uCi of applied radioactivity respectively. A blank control group was also included. Rabbits were anaesthetized at 1, 6, 24, and 48 hours for blood sampling. After blood collection, the animals were euthanized by Phenobarbital injection and the treated right eyes were removed from all test animals. Ocular tissue samples were dissected from the cornea, aqueous humor, vitreous humor, choroid, or retina, placed in 20-mi glass scintillation vials, vortexed, and incubated for 24 hrs with 500 ul digesting fluid. Plasma was separated from whole blood by centrifugation (1,800 g for 10 minutes). Both ocular tissue samples and plasma were incubated at room temperature with 16 ml of Hionic Fluor™ scintillation fluid for a period of 24 hours prior to radioactivity counting. Each sample was counted for 5 minutes in a Betamatic V counter (Bio-Tek Kontron Instruments, St Quentin en Yvelines, France). The conversion of counts per minute (“cpm”) into disintegrations per minute (“dpm”) was performed automatically by the beta-counter, using calibration curves obtained from ^14C-standards and quenching curves from the respective blank matrices spiked with ^14C-standards. The concentration of drug was determined according to nanogram equivalents of CA4P (ng-Eq/g of tissue) which was calculated from the measured dpm value, the weight of the tissue specimen, and the specific activity of the drug (0.37 mCi/mg), followed by subtraction of the corresponding background value from control eye tissue. A tissue concentration of 1 uM CA4P is equal to […] tissue.
Subconjuctival injections were administered at doses of 0.1, 1, 10, and 100 mg/ml. ^14C-CA4P solutions were formulated with 0.24% 10N KOH and 0.01% Benzalkonium chloride and injected in a volume of 100 ul. Animals were treated at an applied dose of 5 uCi with a single subconjunctival injection in right eyes. After delivery, the eye was gently held closed for 2-5 seconds.

With COc1ccc(/C=C\c2cc(OC)c(OC)c(OC)c2)cc1OP(=O)([O-])[O-].[Na+].[Na+] [CA4P, combretastatin A4 disodium phosphate] the “Improvement of Snellen visual acuity, left eye” value (pathological myopia; 27 mg/m2 i.v. weekly) was “improved by five lines to 20/20 vision”, the “Leakage in fluorescein angiography of either eye” value (pathological myopia; Day 8 after 27 mg/m2 i.v. infusion, active leakage in both eyes at baseline) was “No active leakage was observed” and the “Mean cell counts in the vitreous fluid (white blood cells)” value (“Mean cell counts in the vitreous fluid” for short) ([1]; 0.1 mg/ml) was 9 cells/mm^3. For the same compound, the “Irritation on slit-lamp and ophthalmoscope examination” value ([1]; 1 mg/ml intravitreal, 2 rabbits) was “evidence of irritation was noted in one animal”, the “Mean cell counts in the vitreous fluid” value ([1]; 1 mg/ml) was 962 cells/mm^3 and the “Mean cell counts in the vitreous fluid” value ([1]; 10 mg/ml) was 10 cells/mg^3. The “Irritation and inflammation, ophthalmic exams and vitreous white blood cells” value ([1]; 100 mg/ml intravitreal, both animals) was “pronounced irritation and inflammation”, the “Mean cell counts in the vitreous fluid” value ([1]; 100 mg/ml) was 409 cells/mm^3 and the “Irritation (Draize Scores)” value ([1]; Intravitreal, <1 mg) was “No Irritation”. The “Irritation and inflammation, ophthalmic exams and vitreous white blood cells” value ([1]; lower dose levels 0.1, 1.0 and 10 mg/ml intravitreal) was “no clear evidence of irritation or inflammation”, the “Ocular irritation vs negative control eyes” value ([2]; 0.1 and 1.0 mg/ml) was “no irritation was observed” and the “Ocular irritation vs negative control eyes” value ([2]; 10 and 100 mg/ml) was “Slight irritation was observed”. For the same compound, the “Irritation (Draize Scores)” value ([2]; Sub-Tenon's, 0-10 mg) was “No Irritation”, the Cmax ([3]; choroid, 0.1 mg/ml subconjunctival) was 2300 nM and the Cmax ([3]; choroid, 1 mg/ml subconjunctival) was 1900 nM. The Cmax ([3]; choroid, 10 mg/ml subconjunctival) was 188000 nM, the Cmax ([3]; choroid, 100 mg/ml subconjunctival) was 908000 nM and the “Concentration of drug delivered” value ([3]; cornea, retina and choroid, 100, 10 and 1 mg/ml, subconjunctival) was > 1000 nM. The Cmax ([3]; cornea, 0.1 mg/ml subconjunctival) was 1500 nM, the Cmax ([3]; cornea, 1 mg/ml subconjunctival) was 13000 nM and the Cmax ([3]; cornea, 10 mg/ml subconjunctival) was 143000 nM. It also gave a Cmax ([3]; cornea, 100 mg/ml subconjunctival) of 761000 nM, a Cmax ([3]; plasma, 0.1 mg/ml subconjunctival) of 17 nM and a Cmax ([3]; plasma, 1 mg/ml subconjunctival) of 25 nM. It also gave a Cmax ([3]; plasma, 10 mg/ml subconjunctival) of 900 nM, a Cmax ([3]; plasma, 100 mg/ml subconjunctival) of 8000 nM and a Cmax ([3]; retina, 0.1 mg/ml subconjunctival) of 130 nM. It also gave a Cmax ([3]; retina, 1 mg/ml subconjunctival) of 1700 nM, a Cmax ([3]; retina, 10 mg/ml subconjunctival) of 39600 nM and a Cmax ([3]; retina, 100 mg/ml subconjunctival) of 174000 nM. The “Time of highest concentrations of drug in the eye” value ([3]; subconjunctival injection) was “within the first hour”, the Cmax ([3]; vitreous, 0.1 mg/ml subconjunctival) was 5 nM and the Cmax ([3]; vitreous, 1 mg/ml subconjunctival) was 20 nM. It also gave a Cmax ([3]; vitreous, 10 mg/ml subconjunctival) of 2100 nM and a Cmax ([3]; vitreous, 100 mg/ml subconjunctival) of 15700 nM.
